Reference: patent US10226041B2, “Compositions and methods for improving the quality of processed sperm” (Inguran, LLC, priority 2011, dated 2019)
Values joined by “and” are separate entries in the source; they are usually repeats but may differ in a detail not shown here. Equal entries are not always repeated.

System: sex-sorted sperm cells
Experiment: Percent intact acrosomes (PIA) of sex sorted sperm post-thaw
Assay type: cell-based, bovine
Details: for PIA: 3 step
Text: In the tables below: VAP (average path velocity (μm/s)); VSL (straight-line velocity (μm/s)); VCL (curvilinear velocity (μm/s)); ALH (average lateral head displacement (μm)); BCF (the number of times the sperm head crosses the mean path/s in Hz); STR (percent straight-line sperm motility); LIN (percent linear sperm motility); PIA (percent intact acrosomes); motile (percent motile sperm); and progressive (percent progressively motile sperm).

Question: `O=C(O)CCC(=O)C(=O)O` [AKG, Alpha-ketoglutarate] was tested. Which PIA (Holstein 3 hr post-thaw (1st block), .25 mg/ml) did it give?
Answer: 89

Question: What about the PIA (Holstein 3 hr post-thaw (1st block), .35 mg/ml) of the same compound?
Answer: 80

Question: What about the PIA (Holstein 3 hr post-thaw (1st block), .45 mg/ml) of the same compound?
Answer: 80

Question: And the PIA (Holstein 3 hr post-thaw (2nd block), .25 mg/ml)?
Answer: 89

Question: What about the PIA (Holstein 3 hr post-thaw (2nd block), .35 mg/ml) of the same compound?
Answer: 80

Question: What about the PIA (Holstein 3 hr post-thaw (2nd block), .45 mg/ml) of the same compound?
Answer: 80

Question: And the PIA (Holstein 6 hr post-thaw (1st block), .25 mg/ml)?
Answer: 73

Question: And the PIA (Holstein 6 hr post-thaw (1st block), .35 mg/ml)?
Answer: 85

Question: And the PIA (Holstein 6 hr post-thaw (1st block), .45 mg/ml)?
Answer: 79

Question: And the PIA (Holstein 6 hr post-thaw (2nd block), .25 mg/ml)?
Answer: 73

Question: What about the PIA (Holstein 6 hr post-thaw (2nd block), .35 mg/ml) of the same compound?
Answer: 85

Question: What about the PIA (Holstein 6 hr post-thaw (2nd block), .45 mg/ml) of the same compound?
Answer: 79

Question: And the PIA (Jersey 3 hr post-thaw, .25 mg/ml)?
Answer: 62

Question: What about the PIA (Jersey 3 hr post-thaw, .35 mg/ml) of the same compound?
Answer: 54

Question: And the PIA (Jersey 3 hr post-thaw, .45 mg/ml)?
Answer: 71

Question: What does the source list for vitamin B12?
Answer: PIA (percent intact acrosomes) (0.5 mg/ml, 2 step F, 3 hrs post-thaw, Bulls 1-5): 84% and 87% and 88% and 79% and 74%; PIA (.15 mg/ml, Holstein, 1M/straw, 3 hr post-thaw): 66; PIA (.15 mg/ml, Holstein, 2.1M/straw, 3 hr post-thaw): 72; PIA (.15 mg/ml, Jersey, 2.1M/straw, 3 hr post-thaw): 63; PIA (.25 mg/ml, Holstein, 1M/straw, 3 hr post-thaw): 58; PIA (.25 mg/ml, Holstein, 2.1M/straw, 3 hr post-thaw): 76; PIA (.25 mg/ml, Holstein, 5M/straw, 3 hr post-thaw): 68; PIA (.25 mg/ml, Jersey, 2.1M/straw, 3 hr post-thaw): 78; PIA (.35 mg/ml, Holstein, 1M/straw, 3 hr post-thaw): 70; PIA (.35 mg/ml, Holstein, 2.1M/straw, 3 hr post-thaw): 60; PIA (.35 mg/ml, Holstein, 5M/straw, 3 hr post-thaw): 69; PIA (.5 mg/ml, Holstein, 5M/straw, 3 hr post-thaw): 50
